According to article PMC6240685, “Strong Inhibitory Effect, Low Cytotoxicity and High Plasma Stability of Steroidal Inhibitors of N-Methyl-D-Aspartate Receptors With C-3 Amide Structural Motif” (Frontiers in Pharmacology, 2018):
pEC50, pIC50: −log10 of the molar value.

How the values were obtained:
HepG2 cells [1] = test: Hepatotoxicity, XTT viability after 72 h; format: cell-based; conditions: Homo sapiens; 72 h, HepG2, 5.5 mM glucose; read-out: Hepatotoxicity IC50, 5.5 mM glucose
Method: Then, the cell viability (XTT assay) and reactive oxygen species (ROS) induction were evaluated.
(§1) (A) Hepatotoxicity provoked by compound 4 was assessed after 72 h incubation of HepG2 cells in low glucose medium (5 mM) in the presence of compound 4 (0.25–100 μM). (B) Mitochondrial toxicity was determined after 24 h incubation of HepG2 cells in either high glucose medium (25 mM) or galactose medium (10 mM) in the presence of compound 4 (2.5–150 μM). Cell viabilities were recorded in triplicates in three independent experiments and expressed as percentage of vehicle control ± SD and IC50 values were determined by GraphPad Prism software using following equation: Y = Bottom + (Top–Bottom)/(1 + 10ˆ((LogIC50-X)^∗HillSlope)), where IC50 is the concentration of compound 4 that inhibits cell viability half way between Bottom and Top plateaus, X is compound 4 concentration and HillSlope describes the steepness of the family of curves. […] (C) Concentration-dependent effect on ROS level. HepG2 cells were treated with compound 4 (0.25–100 μM) for 72 h, and then the intracellular level of total ROS in relative fluorescence units (RFU) was detected. The data are presented as the mean ± SD for at least three independent experiments and each experiment was carried out in triplicate. Final concentration of DMSO in samples was 1%. […] Single asterisks (^∗) indicate a significant difference (P < 0.05) compared to 1% DMSO control (one-way ANOVA with Dunnett’s post-test).
HepG2 cells (ATCC®, United Kingdom) were grown in complete Minimal Essential Medium (EMEM) (5.5 mM glucose) medium, supplemented with 10% (v/v) fetal calf serum, 200 μg/mL of streptomycin, 200 U/mL of penicillin G and 4 mM glutamine. They were cultured under a humidified atmosphere containing 5% CO2 at 37°C.
The cytotoxicity of the tested compounds was assessed with use of XTT cell proliferation kit II (Roche Diagnostics GmbH, Mannheim, Germany) according to the manufacturer’s instructions. Briefly HepG2 cells were seeded in a 96-well plate at a density of 22,000 cells per well. After 24 h, the tested neurosteroids in a concentration range from 0.5 to 200 μM were added to the culture media and incubated for 72 h before the XTT dye was added. Mitochondrial toxicity was assessed in HepG2 cells using glucose and galactose conditioned media and XTT assay as a read out for cell viability. In brief, cells were seeded onto 96 well, clear bottom tissue culture plates at a density of 22,000 cells/well and left overnight to attach. Six hours prior to the neurosteroids treatment the media was replaced with 100 μL DMEM media containing either glucose (25 mM glucose; 1 mM pyruvate; 2 mM glutamine, 10% FBS) or galactose (10 mM galactose, 1 mM pyruvate, 6 mM glutamine, 10% FBS). After that, the tested neurosteroids in a concentration range from 0.5 to 200 μM were added in the fresh appropriate assay medium (glucose or galactose) and incubated for 24 h before the XTT dye was added. The XTT absorbance was recorded at 495 nm after 1 h incubation with the dye. Compounds were dissolved in DMSO to produce the stock solutions at the concentration of 10 mM, with exception of PAG, 1, 6 (5 mM), and 11 (2.5 mM). Results were expressed as percentages of change in viability compared to appropriate DMSO control. IC50 values were determined by GraphPad Prism version 5.00 for Windows (GraphPad Software, La Jolla, CA, United States). All experiments were done in triplicates in three independent experiments to check the reproducibility.

HepG2 cells [2] = test: ROS induction (CM-H2DCFDA); format: cell-based; conditions: Homo sapiens, HepG2, 72 h; read-out: ROS induction EC50
Method: as §1
The effect of neurosteroids on oxidative stress was determined using general oxidative stress indicator CM-H2DCFDA (Thermo Fisher Scientific, Waltham, MA, United States) according to the manufacturer’s instructions. Briefly HepG2 cells were seeded in a 96-well plate at a density of 13,500 cells per well. After 24 h, the tested neurosteroids were added to the culture media and incubated for 72 h. Subsequently, cells were washed with HBSS, treated with 100 μL of 1 μM CM-H2DCF-DA solution in HBSS and incubated for 1 h in the dark at 37°C. Finally, cells were washed three times with HBSS and the fluorescence was measured using 495 excitation and 527 emission in fluorescence microplate reader (Cytation 3, Winooski, VT, United States). IC50 index values were determined by GraphPad Prism version 5.00 for Windows (GraphPad Software, La Jolla, CA, United States).

## C[C@@]12CCC[C@H]1[C@@H]1CC[C@@H]3C[C@H](NC(=O)[C@@H](N)CC(=O)O)CC[C@]3(C)[C@H]1CC2 [Compound 6, (S)-3-amino-4-(((3R,5R,8S,9S,10S,13S,14S)-10,13-dimethylhexadecahydro-1H-cyclopenta[a]phenanthren-3-yl)amino)-4-oxobutanoic acid]
HepG2 cells [1]
  pIC50: < 3.70
HepG2 cells [2]
  pEC50: < 3.70
